Experiments:
[1] = tested on: MCF7 cells; experiment: Clonogenic assay, FKBPL-overexpressing MCF7 clones versus parental controls; assay type: cell-based; conditions: 16 days, colony count
Method: Cells were plated at a density of 500 and 1000 cells/well in a 6-well plate containing DMEM+10% FCS and incubated at 37° C. for 24 h. […] In both experiments, colonies were fixed and stained with 0.4% Crystal Violet/70% methanol then counted.

[2] = tested on: MCF7 cells; experiment: Clonogenic assay after FKBPL siRNA knockdown versus non-targeting control; assay type: cell-based; conditions: 16 days, versus non-targeting siRNA controls
Method: MCF7 cells were transfected with siControl non-targeting siRNA #1 (Dharmacon, Cat no. D-001210-01-20) or FKBPL targeted siRNA (Ambion, Cat no. 16104). Briefly, 1×10^5 MCF7 cells were seeded into 35 mm dishes and incubated at 37° C. for 24 h. To transfect, in one tube 6.4 μl of either siControl non-targeting siRNA or FKBPL targeted siRNA (2 μM) was added to 160 μl OptiMEM (Invitrogen) and in another tube 4 μl Oligofectamine (Invitrogen, Cat no. 12252-011) was added to 30 μl OptiMEM. Both tubes were incubated at room temperature for 5 min. Both tube contents were mixed and incubated at room temperature for 20 min. During incubation, 800 μl prewarmed complete DMEM was added to the cells then 200 μl transfection mix was added dropwise and the dishes incubated at 37° C. for 72 h. Cells were then plated at a density of 1000 and 2000 cells/well in a 6-well plate containing DMEM+10% FCS and incubated at 37° C. for 24 h. […] In both experiments, colonies were fixed and stained with 0.4% Crystal Violet/70% methanol then counted.

[3] = tested on: MCF7 parental cells; experiment: Western blot of FKBPL and ER protein after 17-β-estradiol; assay type: cell-based; conditions: 10^−8M, 24 h, versus DMSO vehicle
Method: To determine whether FKBPL itself could be regulated by oestrogen, 2×10^5 MCF7 parental cells were seeded into 35 mm dishes with phenol red-free DMEM+10% charcoal stripped FCS and incubated at 37° C. for 24 h. The medium was replaced with phenol red-free DMEM+10% charcoal-stripped FCS containing DMSO as vehicle control or 10^−8M 17-β-estradiol (Sigma, Cat no. E2758) and incubated for 24 h. Cells were lysed in 250 μl 2× laemmli buffer (Sigma) and subjected to SDS-PAGE electrophoresis using the XCell Surelock Mini-cell system (Invitrogen), transferred onto nitrocellulose membranes, blocked for 1 h at room temperature with 1% skim milk blocking solution and probed with FKBPL rabbit polyclonal (ProteinTech, Cat no. 10060-1-AP) at a dilution of 1:2000, ER rabbit monoclonal (Millipore, Cat no. 07-662) at a dilution of 1:1000 and GAPDH rabbit monoclonal (Sigma, Cat no. G9545) at a dilution of 1:5000. The blot was then probed with corresponding anti-rabbit IgG HRP-linked whole antibody secondary (GE Healthcare, Cat no. NA934V) or anti-mouse IgG HRP-linked whole antibody secondary (GE Healthcare, Cat no. NA931V) at a dilution of 1:10000. Antibody binding was detected using Supersignal West Pico Chemiluminescent Substrate (Pierce, Cat no. 34080).

[4] = tested on: oestrogen receptor positive (ER+) patients; conditions: cited from earlier work

In the case of `C[C@]12CC[C@@H]3c4ccc(O)cc4C[C@@H](CCCCCCCCC[S+]([O-])CCCC(F)(F)C(F)(F)F)[C@H]3[C@@H]1CC[C@@H]2O` (some centres unmarked) [fulvestrant, Fulvestrant], the “FKBPL-overexpressing clones more sensitive than parental controls” value ([1]; 2.5 nM fulvestrant) was “up to 99%” and the “Resistance of MCF-7 cells after FKBPL knock-down” value ([2]; 2.5 nM fulvestrant) was “dramatically increased the resistance”.

With `C[C@]12CC[C@@H]3c4ccc(O)cc4CC[C@H]3[C@@H]1CC[C@@H]2O` [17-β-estradiol] the ER levels [3] was “decrease” and the FKBPL protein expression [3] was “upregulated”.

For `CC/C(=C(\c1ccccc1)c1ccc(OCCN(C)C)cc1)c1ccccc1` [tamoxifen, Tamoxifen], the “FKBPL-overexpressing cells more sensitive than parental controls” value ([1]; 1 μM tamoxifen) is listed as “up to 90%”, the “Resistance of MCF-7 cells after FKBPL knock-down” value ([2]; 1 μM tamoxifen) is listed as “dramatically increased the resistance” and the “ER+ patients showing a response” value ([4]; ER+ breast cancer patients) is listed as “around 60%”. For the same compound, the “ER+ tumours failing to respond to or developing resistance” value ([4]; ER+ tumours (non-responder subjects)) was “up to 40%”.
